The results in this text go back to US7812022B2 (GlaxoSmithKline LLC, priority 2004, dated 2010).

One assay addresses T1, ErbB2 or EGFR.
T1 construct: enzymes purified from a baculovirus expression system; Reagent production was conducted essentially as described in Brignola, P. S., et al, (2002) J. Biol. Chem. 277(2): 1576-1585
Kind of assay: ErbB family substrate phosphorylation enzyme assay (HTRF), Method A or Method B. It is filed as biochemical. The gist of the method: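 Baculovirus-expressed EGFR or ErbB2 (0.8 or 10 nM in enzyme mix) phosphorylates biotinylated Peptide C with 20 µM ATP and 0.8 µM peptide (substrate-mix levels), MnCl2, pH 7.5. Reaction ran 90 min at 20 °C with EDTA stop and HTRF anti-phosphotyrosine read. Method A: enzyme added last; Method B: 1 h enzyme–compound preincubation.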

Another assay relates to Colo205 tumor cell lines. Kind of assay: Methylene blue growth inhibition assay (cellular Method A), Colo205. It is filed as cell-based, Human. Particulars: 3 days, read-out: Activity (Method): growth inhibition IC50 class. The method, then: Human breast (BT474) and head and neck (HN5) were cultured in low glucose DMEM (Life Technologies 12320-032) containing 10% fetal bovine serum (FBS). Human colon tumor cells (Colo205) were cultured in DMEM (Invitrogen, 10564) containing 10% FBS. The SV40 transformed human mammary epithelial cell line HB4a was transfected with either human H-ras cDNA (HB4a r4.2) or the human c-ErbB2 cDNA (HB4a c5.2). The HB4a clones were cultured in RPMI containing 10% FBS, insulin (5 g/mL), hydrocortisone (5 g/mL), supplemented with the selection agent hygromycin B (50 g/mL). All lines were grown in a humidified incubator at 37° C. in 95% air, 5% CO2. Cells were harvested using trypsin/EDTA, counted using a haemocytometer, and plated in 100 microliters of the appropriate media, at the following densities, in a 96-well tissue culture plate (Falcon 3075): BT474 10,000 cells/well, HN5 3,000 cells/well. The next day, compounds were diluted in DMEM containing […] gentamicin, at twice the final required concentration, from 10 mM stock solutions in DMSO. 100 microliters/well of these dilutions were added to the 100 microliters of media currently on the cell plates. Medium containing 0.6% DMSO was added to control wells. Compounds diluted in DMEM were added to all cell lines. The final concentration of DMSO in all wells was 0.3%. Cells were returned to the incubator (37° C., 10% CO2) for 3 days. Medium was then removed by aspiration. Cell biomass was estimated by staining cells with 90 microliters per well methylene blue (Sigma M9140, 0.5% in 1:1 ethanol:water), and incubation at rt for at least 30 minutes. Stain was removed, and the plates rinsed by immersion in deionized water and air-dried. To release stain from the cells 100 microliters of solubilization solution was added (1% N-lauroyl sarcosine, Sodium salt, Sigma L5125, in PBS), and plates were shaken gently for about 30 minutes. Optical density at 620 nm was measured on a microplate reader. Percent inhibition of cell growth was calculated relative to vehicle treated control wells. Concentration of compound that inhibits 50% of control cell growth (IC50) was interpolated using nonlinear regression (Levenberg-Marquardt) and the equation, y=Vmax*(1−(x/(K+x)))+Y2, where “K” was equal to the IC50. Method B: Celltiter Glo® Growth Inhibition Assays

Assay [1] concerns BT474 and HN5 tumor cell lines. Kind of assay: Methylene blue growth inhibition assay (cellular Method A). It is filed as cell-based, Human. Particulars: 3 days, read-out: Activity (Method): growth inhibition IC50 class. The procedure, abridged: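 Colo205, BT474 and HN5 cells in DMEM/10% FBS (BT474 10,000, HN5 3,000 cells/well) treated next day with compound in DMEM, 0.3% final DMSO, for 3 days at 37° C. Biomass stained with methylene blue, solubilized, read at OD 620; IC50 interpolated by nonlinear regression from % inhibition versus vehicle.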

The mark [2] stands for this setting: Method B: enzyme mix pre-incubated with compound 1 hour at 20° C., started with substrate mix.

Like-named read-outs stand apart in the source and are kept apart here.

As usually defined, the IC50 is the concentration that inhibits the measured activity by half. Turning to `O=C(Nc1cccc(-c2nn3ccccc3c2-c2ccnc(Nc3cccc(-c4cnco4)c3)n2)c1)c1cc(F)ccc1F` [Example 44, 2,5-Difluoro-N-{3-[3-(2-{[3-(1,3-oxazol-5-yl)phenyl]amino}-4-pyrimidinyl)pyrazolo[1,5-a]pyridin-2-yl]phenyl}benzamide], at ErbB2 or EGFR (Method A: substrate mix added first, reaction started with enzyme mix), the “Activity (Method): pIC50 class against ErbB2 or EGFR” value (shortened to “Activity (Method): pIC50 class”) is listed as “+++ (A) (at least one pIC50 measurement of greater than 7 against either ErbB2 or EGFR)”. Besides, the IC50 in the assay with Colo205 tumor cell lines (Homo sapiens, COLO 205, 72 h) is 100 to 1000 nM; in assay [1] (Homo sapiens, BT-474, 72 h) it was under 100 nM.
Consider `CCN(CC)CCCOc1ccc(Nc2nccc(-c3c(-c4cccc(NC(=O)c5c(F)cccc5F)c4)nn4ccccc34)n2)cc1F` [Example 131, N-[3-(3-{2-[(4-{[3-(Diethylamino)propyl]oxy}-3-fluorophenyl)amino]-4-pyrimidinyl}pyrazolo[1,5-a]pyridin-2-yl)phenyl]-2,6-difluorobenzamide], for which the “Activity (Method): pIC50 class” value on ErbB2 or EGFR (setting [2]) was “+++ (B) (at least one pIC50 measurement of greater than 7 against either ErbB2 or EGFR)”. Moreover, the IC50 in the assay on Colo205 tumor cell lines (Homo sapiens, COLO 205, 72 h) was 100 to 1000 nM; in assay [1] (Homo sapiens, BT-474, 72 h), under 100 nM.
On the same counts, the results for `O=C(Nc1cccc(-c2nn3ccccc3c2-c2ccnc(Nc3cccc(OCCN4CCCC4)c3)n2)c1)c1c(F)cccc1F` [Example 136, 2,6-Difluoro-N-[3-(3-{2-[(3-{[2-(1-pyrrolidinyl)ethyl]oxy}phenyl)amino]-4-pyrimidinyl}pyrazolo[1,5-a]pyridin-2-yl)phenyl]benzamide] are “+++ (B) (at least one pIC50 measurement of greater than 7 against either ErbB2 or EGFR)”, 100 to 1000 nM and under 100 nM.
Regarding `CN(C)CCOc1ccc(Nc2nccc(-c3c(-c4cccc(NC(=O)c5c(F)cccc5F)c4)nn4ccccc34)n2)cc1` [Example 105, N-[3-(3-{2-[(4-{[2-(dimethylamino)ethyl]oxy}phenyl)-amino]-4-pyrimidinyl}pyrazolo[1,5-a]pyridin-2-yl)phenyl]-2,6-difluorobenzamide], the “Activity (Method): pIC50 class” value on ErbB2 or EGFR (setting [2]) is “+++ (B) (at least one pIC50 measurement of greater than 7 against either ErbB2 or EGFR)”. Moreover, the IC50 was under 100 nM in the assay with Colo205 tumor cell lines (Homo sapiens, COLO 205, 72 h) and under 100 nM in assay [1] (Homo sapiens, BT-474, 72 h).
For `COc1cc(CS(C)(=O)=O)ccc1Nc1nccc(-c2c(-c3cccc(NC(=O)c4c(F)cccc4F)c3)nn3ccccc23)n1` [Example 122], the “Activity (Method): pIC50 class” value on ErbB2 or EGFR (setting [2]) is reported as “+++ (B) (at least one pIC50 measurement of greater than 7 against either ErbB2 or EGFR)”. Further, the IC50 (with Colo205 tumor cell lines; in assay [1]) was 100 to 1000 nM in each case.
On to `O=C(Nc1cccc(-c2nn3ccccc3c2-c2ccnc(Nc3ccc(OCCN4CCOCC4)c(Cl)c3)n2)c1)c1c(F)cccc1F` [Example 127, N-[3-(3-{2-[(3-Chloro-4-{[2-(4-morpholinyl)ethyl]-oxy}phenyl)amino]-4-pyrimidinyl}pyrazolo[1,5-a]pyridin-2-yl)phenyl]-2,6-difluorobenzamide], for which the “Activity (Method): pIC50 class” value at ErbB2 or EGFR (setting [2]) is recorded as “+++ (B) (at least one pIC50 measurement of greater than 7 against either ErbB2 or EGFR)”. For the same compound, the IC50 with Colo205 tumor cell lines (Homo sapiens, COLO 205, 72 h) was 100 to 1000 nM; in assay [1] (Homo sapiens, BT-474, 72 h) it was under 100 nM.
On the same counts, the results for `COc1ccc(-c2nn3ccccc3c2-c2ccnc(Nc3cccc(CN(C)C)c3)n2)cc1NC(=O)c1c(F)cccc1F` [Example 192, N-[5-{3-[2-({3-[(dimethylamino)methyl]phenyl}amino)-4-pyrimidinyl]pyrazolo[1,5-a]pyridin-2-yl}-2-(methyloxy)phenyl]-2,6-difluorobenzamide] are “+ (B) (no pIC50 measurement greater than 6 against either ErbB2 or EGFR)”, over 1000 nM and over 1000 nM.
